In the NIST ThermoML archive (doi:10.1016/j.jct.2013.09.008):

Columns and labels:
[1] = wn = mass fraction of the nth substance listed; conditions: 101.33 kPa, Liquid; for speed of sound: Frequency=3 MHz, Linear variable-path acoustic interferometer; for mass density: Pycnometric method; for viscosity: Capillary tube (Ostwald / Ubbelohde) method
[2] = 101.33 kPa, Liquid; for speed of sound: Frequency=3 MHz, Linear variable-path acoustic interferometer; for viscosity: Capillary tube (Ostwald / Ubbelohde) method
[3] = mn = molality of the nth substance listed, in mol/kg; conditions: 101.33 kPa, Liquid, m2 = 0; for speed of sound: Frequency=3 MHz, Linear variable-path acoustic interferometer; for viscosity: Capillary tube (Ostwald / Ubbelohde) method

O=C[C@H](O)[C@@H](O)[C@H](O)[C@H](O)CO [D-glucose] + O
[1]
Conditions	mass density, w1 = 0.025 [kg/m3]	mass density, w1 = 0.05 [kg/m3]	speed of sound, w1 = 0.025 [m/s]	speed of sound, w1 = 0.05 [m/s]	viscosity, w1 = 0.025 [mPa·s]	viscosity, w1 = 0.05 [mPa·s]
293.15 K	–	1016.28	1492.9	–	–	–
298.15 K	1005.91	1014.69	–	1514.3	0.9202	0.9767
303.15 K	1004.61	1013.08	1517.4	1525.1	0.8167	0.8605
308.15 K	1003.21	1011.47	–	1535.7	0.7324	0.7697
313.15 K	1001.61	1009.85	1536.9	1545.6	0.661	0.6945
318.15 K	999.76	–	–	1554.5	0.6035	0.6334

OC[C@H]1O[C@@](CO)(O[C@H]2O[C@H](CO)[C@@H](O)[C@H](O)[C@H]2O)[C@@H](O)[C@@H]1O [D-sucrose] + O
[1]
Conditions	mass density, w1 = 0.025 [kg/m3]	mass density, w1 = 0.05 [kg/m3]	speed of sound, w1 = 0.025 [m/s]	speed of sound, w1 = 0.05 [m/s]	viscosity, w1 = 0.025 [mPa·s]	viscosity, w1 = 0.05 [mPa·s]
293.15 K	1009.22	1018.91	1497.2	1501.4	–	–
298.15 K	1007.51	1017.19	1511.2	1516.5	0.9618	1.011
303.15 K	1005.76	1015.45	1521.5	1526.6	0.8761	0.9129
308.15 K	1004.05	1013.72	1532.1	1537.7	0.7969	0.8285
313.15 K	1002.31	1011.98	1542.5	1547.7	0.7057	0.7457
318.15 K	1000.56	1010.23	1552	1557.2	0.6624	0.6946

O=C[C@H](O)[C@@H](O)[C@@H](O)CO [L-arabinose] + O
[1]
Conditions	mass density, w1 = 0.025 [kg/m3]	mass density, w1 = 0.05 [kg/m3]	speed of sound, w1 = 0.025 [m/s]	speed of sound, w1 = 0.05 [m/s]	viscosity, w1 = 0.025 [mPa·s]	viscosity, w1 = 0.05 [mPa·s]
293.15 K	1007.35	1016.09	1491.4	1502.3	–	–
298.15 K	1005.77	1014.44	1506.7	1516.9	0.9141	0.9695
303.15 K	1004.18	1012.79	1517	1526.8	0.8116	0.8573
308.15 K	1002.6	1011.13	1528.6	1537.9	0.7304	0.7658
313.15 K	1001.01	1009.46	1536.8	1545.7	0.6591	0.689
318.15 K	999.43	1007.8	1543.1	1551.8	0.6006	0.6295

O [water]
[2]
Conditions	speed of sound [m/s]	viscosity [mPa·s]
293.15 K	1483.6	–
298.15 K	–	0.8903
303.15 K	1508.4	0.7973
308.15 K	–	0.719
313.15 K	1526.8	0.6526
318.15 K	1533	0.5972

O [water] + N[C@@H](Cc1ccccc1)C(=O)O
[3]
Conditions	speed of sound [m/s]	viscosity [mPa·s]
293.15 K	1483.6	–
298.15 K	–	0.8903
303.15 K	1508.4	0.7973
308.15 K	–	0.719
313.15 K	1526.8	0.6526
318.15 K	1533	0.5972

Conditions	mass density [kg/m3]
[3], 308.15 K, Pycnometric method	994.07
